# Measured values published in publication PMC10905675, “INX-315, a Selective CDK2 Inhibitor, Induces Cell Cycle Arrest and Senescence in Solid Tumors” (Cancer Discovery, 2023).
# Assays:
# Test in all cases: SelectScreen ZLYTE
# Type in all cases: biochemical
# Conditions in all cases: INX-0315 at 100nM
# ROS1 = target: T1, ROS1 (Homo sapiens, UniProt P08922)
# T1 construct: purchased Thermo Fisher Scientific SelectScreen (plus Nanosyn / Reaction Biology for CDK/cyclin lines)
# Outline: (§1)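 INX-315, single point 100 nmol/L, 1% DMSO; then 10-pt titration 1 µmol/L → 0.0495 nmol/L. Standard vendor conditions.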
# MET M1250T = target: T2, MET M1250T (Homo sapiens, UniProt P08581, M1250T)
# T2 construct: purchased Thermo Fisher Scientific SelectScreen (plus Nanosyn / Reaction Biology for CDK/cyclin lines)
# Outline: as §1
# MAP4K5 (KHS1) = target: T3, MAP4K5 (KHS1) (Homo sapiens, UniProt Q9Y4K4)
# T3 construct: purchased Thermo Fisher Scientific SelectScreen (plus Nanosyn / Reaction Biology for CDK/cyclin lines)
# T3 sequence (Q9Y4K4 whole entry): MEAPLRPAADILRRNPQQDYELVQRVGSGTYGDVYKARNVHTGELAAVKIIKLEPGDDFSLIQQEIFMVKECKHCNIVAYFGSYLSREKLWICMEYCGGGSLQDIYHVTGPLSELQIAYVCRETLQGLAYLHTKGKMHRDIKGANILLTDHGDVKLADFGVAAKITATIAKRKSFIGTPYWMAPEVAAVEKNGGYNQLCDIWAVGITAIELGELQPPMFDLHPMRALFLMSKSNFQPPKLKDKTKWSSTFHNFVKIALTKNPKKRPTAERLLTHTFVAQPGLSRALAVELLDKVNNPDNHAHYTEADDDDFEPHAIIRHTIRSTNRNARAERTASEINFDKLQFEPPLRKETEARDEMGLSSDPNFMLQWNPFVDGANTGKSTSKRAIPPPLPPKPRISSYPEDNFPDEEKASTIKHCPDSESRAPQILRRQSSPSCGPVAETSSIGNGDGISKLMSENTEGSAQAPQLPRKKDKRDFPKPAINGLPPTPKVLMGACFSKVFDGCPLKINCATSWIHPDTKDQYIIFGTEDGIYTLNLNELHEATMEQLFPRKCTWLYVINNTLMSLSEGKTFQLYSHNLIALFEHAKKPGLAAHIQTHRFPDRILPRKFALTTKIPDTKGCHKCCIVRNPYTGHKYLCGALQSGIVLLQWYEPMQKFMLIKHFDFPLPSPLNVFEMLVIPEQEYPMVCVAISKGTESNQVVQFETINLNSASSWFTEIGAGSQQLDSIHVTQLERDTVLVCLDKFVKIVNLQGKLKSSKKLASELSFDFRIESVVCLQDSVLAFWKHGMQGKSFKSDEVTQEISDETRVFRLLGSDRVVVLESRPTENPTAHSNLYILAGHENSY
# Outline: as §1
# MAPK12 (p38 gamma) = target: T4, MAPK12 (p38 gamma) (Homo sapiens, UniProt P53778)
# T4 construct: purchased Thermo Fisher Scientific SelectScreen (plus Nanosyn / Reaction Biology for CDK/cyclin lines)
# Outline: as §1
# MAPK14 (p38 alpha) = target: T5, MAPK14 (p38 alpha) (Homo sapiens, UniProt Q16539)
# T5 construct: purchased Thermo Fisher Scientific SelectScreen (plus Nanosyn / Reaction Biology for CDK/cyclin lines)
# Outline: as §1
# FLT3 D835Y = target: T6, FLT3 D835Y (Homo sapiens, UniProt P36888, D835Y)
# T6 construct: purchased Thermo Fisher Scientific SelectScreen (plus Nanosyn / Reaction Biology for CDK/cyclin lines)
# Outline: as §1
# MKNK1 (MNK1) = target: T7, MKNK1 (MNK1) (Homo sapiens, UniProt Q9BUB5)
# T7 construct: purchased Thermo Fisher Scientific SelectScreen (plus Nanosyn / Reaction Biology for CDK/cyclin lines)
# T7 sequence (Q9BUB5 whole entry): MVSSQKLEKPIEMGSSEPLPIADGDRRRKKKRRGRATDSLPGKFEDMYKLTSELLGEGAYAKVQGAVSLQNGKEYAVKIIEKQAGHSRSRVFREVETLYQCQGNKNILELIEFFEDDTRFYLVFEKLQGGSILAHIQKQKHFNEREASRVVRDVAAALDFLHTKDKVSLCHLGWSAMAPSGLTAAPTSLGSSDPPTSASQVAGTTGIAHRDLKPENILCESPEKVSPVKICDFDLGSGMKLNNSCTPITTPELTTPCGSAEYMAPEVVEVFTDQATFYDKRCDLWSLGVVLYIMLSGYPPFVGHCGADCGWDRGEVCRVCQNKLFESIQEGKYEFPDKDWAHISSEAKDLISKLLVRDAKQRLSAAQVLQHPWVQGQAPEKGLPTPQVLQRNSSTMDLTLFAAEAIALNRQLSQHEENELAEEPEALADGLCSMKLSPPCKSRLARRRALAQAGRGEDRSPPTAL
# Outline: as §1
# PTK6 (Brk) = target: T8, PTK6 (Brk) (Homo sapiens, UniProt Q13882)
# T8 construct: purchased Thermo Fisher Scientific SelectScreen (plus Nanosyn / Reaction Biology for CDK/cyclin lines)
# Outline: as §1
# MARK1 (MARK) = target: T9, MARK1 (MARK) (Homo sapiens, UniProt Q9P0L2)
# T9 construct: purchased Thermo Fisher Scientific SelectScreen (plus Nanosyn / Reaction Biology for CDK/cyclin lines)
# Outline: as §1
# EPHA4 = target: T10, EPHA4 (Homo sapiens, UniProt P54764)
# T10 construct: purchased Thermo Fisher Scientific SelectScreen (plus Nanosyn / Reaction Biology for CDK/cyclin lines)
# Outline: as §1
# FER = target: T11, FER (Homo sapiens, UniProt P16591)
# T11 construct: purchased Thermo Fisher Scientific SelectScreen (plus Nanosyn / Reaction Biology for CDK/cyclin lines)
# T11 sequence (P16591 whole entry): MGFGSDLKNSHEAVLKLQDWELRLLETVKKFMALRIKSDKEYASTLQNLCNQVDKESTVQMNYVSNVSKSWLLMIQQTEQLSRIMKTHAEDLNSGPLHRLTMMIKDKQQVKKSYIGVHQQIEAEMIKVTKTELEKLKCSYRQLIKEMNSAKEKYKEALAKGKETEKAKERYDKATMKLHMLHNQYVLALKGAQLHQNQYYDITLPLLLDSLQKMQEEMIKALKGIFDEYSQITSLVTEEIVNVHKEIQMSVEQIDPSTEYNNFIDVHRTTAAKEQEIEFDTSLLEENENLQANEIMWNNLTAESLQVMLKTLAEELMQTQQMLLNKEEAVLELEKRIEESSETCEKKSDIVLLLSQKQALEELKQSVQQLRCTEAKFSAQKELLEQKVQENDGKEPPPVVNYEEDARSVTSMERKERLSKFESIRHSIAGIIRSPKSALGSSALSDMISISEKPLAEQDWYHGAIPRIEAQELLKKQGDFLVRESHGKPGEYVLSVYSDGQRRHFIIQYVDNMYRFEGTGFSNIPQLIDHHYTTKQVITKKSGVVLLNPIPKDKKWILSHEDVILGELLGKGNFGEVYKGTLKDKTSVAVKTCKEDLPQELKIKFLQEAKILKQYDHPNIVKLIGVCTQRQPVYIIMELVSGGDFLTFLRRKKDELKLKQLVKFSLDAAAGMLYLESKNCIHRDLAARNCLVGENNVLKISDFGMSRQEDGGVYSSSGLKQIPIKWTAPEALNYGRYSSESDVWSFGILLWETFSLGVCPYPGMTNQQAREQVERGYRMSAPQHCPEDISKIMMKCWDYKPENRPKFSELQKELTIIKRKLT
# Outline: as §1
# RPS6KA3 (RSK2) = target: T12, RPS6KA3 (RSK2) (Homo sapiens, UniProt P51812)
# T12 construct: purchased Thermo Fisher Scientific SelectScreen (plus Nanosyn / Reaction Biology for CDK/cyclin lines)
# Outline: as §1
# RPS6KA4 (MSK2) = target: T13, RPS6KA4 (MSK2) (Homo sapiens, UniProt O75676)
# T13 construct: purchased Thermo Fisher Scientific SelectScreen (plus Nanosyn / Reaction Biology for CDK/cyclin lines)
# Outline: as §1
# CDC42 BPB (MRCKB) = target: T14, CDC42 BPB (MRCKB) (Homo sapiens, UniProt Q9Y5S2)
# T14 construct: purchased Thermo Fisher Scientific SelectScreen (plus Nanosyn / Reaction Biology for CDK/cyclin lines)
# Outline: as §1
# CDK2/cyclin A = target: T15, CDK2/cyclin A (Homo sapiens, UniProt P24941)
# T15 construct: purchased Thermo Fisher Scientific SelectScreen (plus Nanosyn / Reaction Biology for CDK/cyclin lines)
# Outline: as §1
# FLT4 (VEGFR3) = target: T16, FLT4 (VEGFR3) (Homo sapiens, UniProt P35916)
# T16 construct: purchased Thermo Fisher Scientific SelectScreen (plus Nanosyn / Reaction Biology for CDK/cyclin lines)
# Outline: as §1
# SBK1 = target: T17, SBK1 (Homo sapiens, UniProt Q52WX2)
# T17 construct: purchased Thermo Fisher Scientific SelectScreen (plus Nanosyn / Reaction Biology for CDK/cyclin lines)
# Outline: as §1
# RPS6KA1 (RSK1) = target: T18, RPS6KA1 (RSK1) (Homo sapiens, UniProt Q15418)
# T18 construct: purchased Thermo Fisher Scientific SelectScreen (plus Nanosyn / Reaction Biology for CDK/cyclin lines)
# Outline: as §1
# RAF1 (cRAF) Y340D Y341D = target: T19, RAF1 (cRAF) Y340D Y341D (Homo sapiens, UniProt P04049, Y340D/Y341D)
# T19 construct: purchased Thermo Fisher Scientific SelectScreen (plus Nanosyn / Reaction Biology for CDK/cyclin lines)
# Outline: as §1
# IKBKB (IKK beta) = target: T20, IKBKB (IKK beta) (Homo sapiens, UniProt O14920)
# T20 construct: purchased Thermo Fisher Scientific SelectScreen (plus Nanosyn / Reaction Biology for CDK/cyclin lines)
# Outline: as §1
# CSNK1G3 (CK1 gamma 3) = target: T21, CSNK1G3 (CK1 gamma 3) (Homo sapiens, UniProt Q9Y6M4)
# T21 construct: purchased Thermo Fisher Scientific SelectScreen (plus Nanosyn / Reaction Biology for CDK/cyclin lines)
# Outline: as §1
# EGFR (ErbB1) L861Q = target: T22, EGFR (ErbB1) L861Q (Homo sapiens, UniProt P00533, L861Q)
# T22 construct: purchased Thermo Fisher Scientific SelectScreen (plus Nanosyn / Reaction Biology for CDK/cyclin lines)
# Outline: as §1
# PIM2 = target: T23, PIM2 (Homo sapiens, UniProt Q9P1W9)
# T23 construct: purchased Thermo Fisher Scientific SelectScreen (plus Nanosyn / Reaction Biology for CDK/cyclin lines)
# T23 sequence (Q9P1W9 whole entry): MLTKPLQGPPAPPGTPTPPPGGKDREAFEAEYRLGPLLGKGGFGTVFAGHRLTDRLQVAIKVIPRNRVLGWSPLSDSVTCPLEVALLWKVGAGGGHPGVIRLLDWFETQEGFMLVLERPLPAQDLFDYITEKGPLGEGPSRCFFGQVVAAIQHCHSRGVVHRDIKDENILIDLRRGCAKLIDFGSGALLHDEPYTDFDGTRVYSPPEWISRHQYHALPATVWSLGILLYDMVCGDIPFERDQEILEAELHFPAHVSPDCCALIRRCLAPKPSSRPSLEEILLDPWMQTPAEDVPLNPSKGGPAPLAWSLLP
# Outline: as §1
# FGFR4 = target: T24, FGFR4 (Homo sapiens, UniProt P22455)
# T24 construct: purchased Thermo Fisher Scientific SelectScreen (plus Nanosyn / Reaction Biology for CDK/cyclin lines)
# Outline: as §1
# PAK4 = target: T25, PAK4 (Homo sapiens, UniProt O96013)
# T25 construct: purchased Thermo Fisher Scientific SelectScreen (plus Nanosyn / Reaction Biology for CDK/cyclin lines)
# Outline: as §1
# PDGFRB (PDGFR beta) = target: T26, PDGFRB (PDGFR beta) (Homo sapiens, UniProt P09619)
# T26 construct: purchased Thermo Fisher Scientific SelectScreen (plus Nanosyn / Reaction Biology for CDK/cyclin lines)
# Outline: as §1
# FGFR3 = target: T27, FGFR3 (Homo sapiens, UniProt P22607)
# T27 construct: purchased Thermo Fisher Scientific SelectScreen (plus Nanosyn / Reaction Biology for CDK/cyclin lines)
# Outline: as §1
# CDK5/p35 = target: T28, CDK5/p35 (Homo sapiens, UniProt Q00535)
# T28 construct: purchased Thermo Fisher Scientific SelectScreen (plus Nanosyn / Reaction Biology for CDK/cyclin lines)
# Outline: as §1
# NEK9 = target: T29, NEK9 (Homo sapiens, UniProt Q8TD19)
# T29 construct: purchased Thermo Fisher Scientific SelectScreen (plus Nanosyn / Reaction Biology for CDK/cyclin lines)
# Outline: as §1
# AMPK (A2/B1/G3) = target: T30, AMPK (A2/B1/G3) (Homo sapiens, UniProt P54646)
# T30 construct: purchased Thermo Fisher Scientific SelectScreen (plus Nanosyn / Reaction Biology for CDK/cyclin lines)
# Outline: as §1
# MAP3K8 (COT) = target: T31, MAP3K8 (COT) (Homo sapiens, UniProt P41279)
# T31 construct: purchased Thermo Fisher Scientific SelectScreen (plus Nanosyn / Reaction Biology for CDK/cyclin lines)
# Outline: as §1
# DYRK1B = target: T32, DYRK1B (Homo sapiens, UniProt Q9Y463)
# T32 construct: purchased Thermo Fisher Scientific SelectScreen (plus Nanosyn / Reaction Biology for CDK/cyclin lines)
# Outline: as §1
# PASK = target: T33, PASK (Homo sapiens, UniProt Q96RG2)
# T33 construct: purchased Thermo Fisher Scientific SelectScreen (plus Nanosyn / Reaction Biology for CDK/cyclin lines)
# Outline: as §1
# PIM1 = target: T34, PIM1 (Homo sapiens, UniProt P11309)
# T34 construct: purchased Thermo Fisher Scientific SelectScreen (plus Nanosyn / Reaction Biology for CDK/cyclin lines)
# T34 sequence (P11309 whole entry): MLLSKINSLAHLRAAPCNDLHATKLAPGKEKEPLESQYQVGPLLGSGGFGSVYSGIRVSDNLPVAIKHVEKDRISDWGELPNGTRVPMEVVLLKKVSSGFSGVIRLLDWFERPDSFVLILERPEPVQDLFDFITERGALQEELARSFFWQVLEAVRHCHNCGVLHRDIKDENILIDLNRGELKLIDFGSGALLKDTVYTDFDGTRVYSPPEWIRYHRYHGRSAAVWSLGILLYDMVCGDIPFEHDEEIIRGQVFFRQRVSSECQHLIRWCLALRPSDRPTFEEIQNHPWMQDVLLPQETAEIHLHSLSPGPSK
# Outline: as §1
# MAPK11 (p38 beta) = target: T35, MAPK11 (p38 beta) (Homo sapiens, UniProt Q15759)
# T35 construct: purchased Thermo Fisher Scientific SelectScreen (plus Nanosyn / Reaction Biology for CDK/cyclin lines)
# Outline: as §1
# PKN1 (PRK1) = target: T36, PKN1 (PRK1) (Homo sapiens, UniProt Q16512)
# T36 construct: purchased Thermo Fisher Scientific SelectScreen (plus Nanosyn / Reaction Biology for CDK/cyclin lines)
# T36 sequence (Q16512 whole entry): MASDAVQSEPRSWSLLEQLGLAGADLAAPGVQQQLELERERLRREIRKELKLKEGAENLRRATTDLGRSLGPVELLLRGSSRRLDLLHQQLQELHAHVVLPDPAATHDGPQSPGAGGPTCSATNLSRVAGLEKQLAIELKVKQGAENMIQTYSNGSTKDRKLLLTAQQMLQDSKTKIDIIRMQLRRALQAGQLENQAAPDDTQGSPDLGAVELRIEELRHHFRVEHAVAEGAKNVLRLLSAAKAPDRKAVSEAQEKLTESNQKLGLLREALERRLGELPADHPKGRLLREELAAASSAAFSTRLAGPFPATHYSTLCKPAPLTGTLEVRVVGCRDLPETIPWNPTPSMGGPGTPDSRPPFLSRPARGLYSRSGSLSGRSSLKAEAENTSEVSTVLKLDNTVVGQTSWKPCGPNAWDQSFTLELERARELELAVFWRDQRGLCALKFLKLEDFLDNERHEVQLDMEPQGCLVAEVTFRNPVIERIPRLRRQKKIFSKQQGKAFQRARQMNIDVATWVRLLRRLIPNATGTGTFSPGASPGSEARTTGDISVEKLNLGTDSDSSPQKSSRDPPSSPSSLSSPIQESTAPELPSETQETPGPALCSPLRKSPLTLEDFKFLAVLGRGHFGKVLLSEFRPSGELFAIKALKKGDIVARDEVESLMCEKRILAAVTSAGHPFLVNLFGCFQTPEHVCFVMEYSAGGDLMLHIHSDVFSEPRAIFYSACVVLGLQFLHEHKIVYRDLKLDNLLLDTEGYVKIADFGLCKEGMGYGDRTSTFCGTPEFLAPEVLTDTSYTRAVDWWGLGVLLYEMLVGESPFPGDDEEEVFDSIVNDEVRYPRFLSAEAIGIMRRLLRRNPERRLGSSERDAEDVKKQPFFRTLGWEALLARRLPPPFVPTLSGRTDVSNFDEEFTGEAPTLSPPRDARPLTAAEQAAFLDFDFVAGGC
# Outline: as §1
# MET (cMet) = target: T37, MET (cMet) (Homo sapiens, UniProt P08581)
# T37 construct: purchased Thermo Fisher Scientific SelectScreen (plus Nanosyn / Reaction Biology for CDK/cyclin lines)
# T37 sequence (P08581 25-1390): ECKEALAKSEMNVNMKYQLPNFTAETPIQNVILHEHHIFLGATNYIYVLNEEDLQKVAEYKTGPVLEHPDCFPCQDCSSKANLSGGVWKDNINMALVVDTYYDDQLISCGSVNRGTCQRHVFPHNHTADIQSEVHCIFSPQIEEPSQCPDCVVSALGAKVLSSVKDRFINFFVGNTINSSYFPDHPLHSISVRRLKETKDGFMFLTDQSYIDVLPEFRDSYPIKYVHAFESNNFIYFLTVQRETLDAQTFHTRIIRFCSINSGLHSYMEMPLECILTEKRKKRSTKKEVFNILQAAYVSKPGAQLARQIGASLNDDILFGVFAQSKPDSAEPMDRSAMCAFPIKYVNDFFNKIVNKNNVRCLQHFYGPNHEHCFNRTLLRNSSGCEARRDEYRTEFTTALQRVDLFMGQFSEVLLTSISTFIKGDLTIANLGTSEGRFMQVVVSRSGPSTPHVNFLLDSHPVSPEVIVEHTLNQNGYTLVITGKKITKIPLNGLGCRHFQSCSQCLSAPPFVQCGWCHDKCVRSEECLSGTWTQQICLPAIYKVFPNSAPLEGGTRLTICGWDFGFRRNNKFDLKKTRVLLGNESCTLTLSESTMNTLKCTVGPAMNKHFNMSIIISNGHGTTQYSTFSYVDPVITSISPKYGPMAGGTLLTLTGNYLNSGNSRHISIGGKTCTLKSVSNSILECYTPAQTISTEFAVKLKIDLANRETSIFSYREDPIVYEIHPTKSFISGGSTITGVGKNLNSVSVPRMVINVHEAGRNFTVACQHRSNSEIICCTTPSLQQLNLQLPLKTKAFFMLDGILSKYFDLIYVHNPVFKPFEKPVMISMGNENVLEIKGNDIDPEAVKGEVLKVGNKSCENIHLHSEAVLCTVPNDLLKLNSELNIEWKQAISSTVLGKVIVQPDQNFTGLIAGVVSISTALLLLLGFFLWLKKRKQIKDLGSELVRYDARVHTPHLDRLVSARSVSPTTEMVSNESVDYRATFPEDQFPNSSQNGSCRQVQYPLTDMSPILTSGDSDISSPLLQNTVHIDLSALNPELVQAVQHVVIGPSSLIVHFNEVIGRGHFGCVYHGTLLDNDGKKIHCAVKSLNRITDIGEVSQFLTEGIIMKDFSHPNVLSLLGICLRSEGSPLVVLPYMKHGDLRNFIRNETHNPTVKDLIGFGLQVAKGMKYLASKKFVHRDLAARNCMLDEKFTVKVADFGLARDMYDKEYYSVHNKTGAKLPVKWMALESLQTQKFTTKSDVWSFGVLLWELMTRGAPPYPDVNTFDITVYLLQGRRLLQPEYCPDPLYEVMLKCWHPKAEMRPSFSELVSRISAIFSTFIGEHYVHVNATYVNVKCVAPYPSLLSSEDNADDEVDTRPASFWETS
# Outline: as §1
compound,measurement,setting,value
NS(=O)(=O)c1ccc(Nc2ncc3cc4n(c3n2)C2(CCCCC2)C(=O)NN4)cc1 [INX-315],inhibition at 0.1 µM,ROS1,19%
same,inhibition at 0.1 µM,MET M1250T,3%
same,inhibition at 0.1 µM,MAP4K5 (KHS1),23%
same,inhibition at 0.1 µM,MAPK12 (p38 gamma),9%
same,inhibition at 0.1 µM,MAPK14 (p38 alpha),1%
same,inhibition at 0.1 µM,FLT3 D835Y,31%
same,inhibition at 0.1 µM,MKNK1 (MNK1),3%
same,inhibition at 0.1 µM,PTK6 (Brk),-1%
same,inhibition at 0.1 µM,MARK1 (MARK),9%
same,inhibition at 0.1 µM,EPHA4,5%
same,inhibition at 0.1 µM,FER,13%
same,inhibition at 0.1 µM,RPS6KA3 (RSK2),27%
same,inhibition at 0.1 µM,RPS6KA4 (MSK2),4%
same,inhibition at 0.1 µM,CDC42 BPB (MRCKB),-1%
same,inhibition at 0.1 µM,CDK2/cyclin A,100%
same,inhibition at 0.1 µM,FLT4 (VEGFR3),53%
same,inhibition at 0.1 µM,SBK1,5%
same,inhibition at 0.1 µM,RPS6KA1 (RSK1),47%
same,inhibition at 0.1 µM,RAF1 (cRAF) Y340D Y341D,5%
same,inhibition at 0.1 µM,IKBKB (IKK beta),4%
same,inhibition at 0.1 µM,CSNK1G3 (CK1 gamma 3),-1%
same,inhibition at 0.1 µM,EGFR (ErbB1) L861Q,3%
same,inhibition at 0.1 µM,PIM2,5%
same,inhibition at 0.1 µM,FGFR4,2%
same,inhibition at 0.1 µM,PAK4,7%
same,inhibition at 0.1 µM,PDGFRB (PDGFR beta),25%
same,inhibition at 0.1 µM,FGFR3,-3%
same,inhibition at 0.1 µM,CDK5/p35,87%
same,inhibition at 0.1 µM,NEK9,2%
same,inhibition at 0.1 µM,AMPK (A2/B1/G3),17%
same,inhibition at 0.1 µM,MAP3K8 (COT),-1%
same,inhibition at 0.1 µM,DYRK1B,1%
same,inhibition at 0.1 µM,PASK,2%
same,inhibition at 0.1 µM,PIM1,1%
same,inhibition at 0.1 µM,MAPK11 (p38 beta),7%
same,inhibition at 0.1 µM,PKN1 (PRK1),7%
same,inhibition at 0.1 µM,MET (cMet),6%
